Source: ChEMBL document CHEMBL3576821, “A potent antimicrobial compound isolated from Clathria cervicornis” (2015)
≈ marks a conversion by molar mass, not a printed value.

Key:
Assay type in all cases: functional
[1] = tested on: Pseudomonas aeruginosa; test: Antimicrobial activity against Pseudomonas aeruginosa ATCC 10145 assessed as bacterial growth inhibition after 24 hrs by standard broth microdilution method; details: ATCC 10145, 24 h
[2] = tested on: Klebsiella pneumoniae; test: Antimicrobial activity against Klebsiella pneumoniae ATCC 13883 assessed as bacterial growth inhibition after 24 hrs by standard broth microdilution method; details: ATCC 13883, 24 h
[3] = tested on: Acinetobacter baumannii; test: Antimicrobial activity against Acinetobacter baumannii ATCC 19606 assessed as bacterial growth inhibition after 24 hrs by standard broth microdilution method; details: ATCC 19606, 24 h

| Structure (SMILES) | MIC [1] [µg/mL] | MIC [2] [µg/mL] | MIC [3] [µg/mL] |
| --- | --- | --- | --- |
| O=C(O)c1cn(C2CC2)c2cc(N3CCNCC3)c(F)cc2c1=O [CIPROFLOXACIN] | 1 (≈ 3.02 µM) | 1 (≈ 3.02 µM) | 2 (≈ 6.04 µM) |
| CC[C@H]1CCCC[C@@]2(C[C@@H]3CC[C@@H]4[C@H](C(=O)OCCCCCCCCCCCCCCCC(=O)N(CCCN)C[C@@H](O)CCN)[C@]5(CCC[C@@H](C)O5)N=C(N2)N34)O1 [CRAMBESCIDIN 800] | 1 (≈ 1.25 µM) | 1 (≈ 1.25 µM) | 2 (≈ 2.49 µM) |
| C[C@H]1COc2c(N3CCN(C)CC3)c(F)cc3c(=O)c(C(=O)O)cn1c23.C[C@H]1COc2c(N3CCN(C)CC3)c(F)cc3c(=O)c(C(=O)O)cn1c23.O [LEVOFLOXACIN] | – | – | 1 |
| CN(C)[C@@H]1C(O)=C(C(N)=O)C(=O)[C@@]2(O)C(O)=C3C(=O)c4c(O)cccc4[C@@](C)(O)[C@H]3C[C@@H]12 [TETRACYCLINE] | 1 (≈ 2.25 µM) | 1 (≈ 2.25 µM) | 2 (≈ 4.5 µM) |
